The text below walks through data of ChEMBL document CHEMBL3217741, “Synthesis of 1,4-triazole linked zanamivir dimers as highly potent inhibitors of influenza A and B” (Medchemcomm, 2013).

For orientation: EC50 means the concentration giving half of the maximal effect. Read a low EC50 as an effect from little substance.

This test concerns Influenza B virus. Put plainly: microbe, parasite or virus in culture. To be noted: B/Harbin/07/94, MDCK, 72 h.
Description: Antiviral activity against Influenza B virus (B/Harbin/07/94) infected in MDCK cells assessed as reduction of virus-induced cytopathic effect after 72 hrs by MTT assay
Consider `CC(=O)N[C@H]1[C@H]([C@H](OC(=O)NCCCn2cc(CCCc3cn(CCCNC(=O)O[C@@H]([C@@H]4OC(C(=O)O)=C[C@H](NC(=N)N)[C@H]4NC(C)=O)[C@H](O)CO)nn3)nn2)[C@H](O)CO)OC(C(=O)O)=C[C@@H]1NC(=N)N`, for which it took 0.65 nM to reach a half-maximal effect (EC50).
Under `CC(=O)N[C@H]1[C@H]([C@H](OC(=O)NCCCCCn2cc(CCCCCc3cn(CCCCCNC(=O)O[C@@H]([C@@H]4OC(C(=O)O)=C[C@H](NC(=N)N)[C@H]4NC(C)=O)[C@H](O)CO)nn3)nn2)[C@H](O)CO)OC(C(=O)O)=C[C@@H]1NC(=N)N` stands 0.88 nM.
The figure for `CC(=O)N[C@H]1[C@H]([C@H](OC(=O)NCCCCCn2cc(CCCCNC(=O)O[C@@H]([C@@H]3OC(C(=O)O)=C[C@H](NC(=N)N)[C@H]3NC(C)=O)[C@H](O)CO)nn2)[C@H](O)CO)OC(C(=O)O)=C[C@@H]1NC(=N)N` is 0.79 nM.
`CC(=O)N[C@H]1[C@H]([C@H](O)[C@H](O)CO)OC(C(=O)O)=C[C@@H]1NC(=N)N` [ZANAMIVIR] came in with an EC50 of 149 nM.
Turning to `CCOC(=O)C1=C[C@@H](OC(CC)CC)[C@H](NC(C)=O)[C@@H](N)C1` [OSELTAMIVIR], the EC50 worked out at 583 nM.
Compound `CC(=O)N[C@H]1[C@H]([C@H](OC(=O)NCCCCCCCn2cc(CCCCNC(=O)O[C@@H]([C@@H]3OC(C(=O)O)=C[C@H](NC(=N)N)[C@H]3NC(C)=O)[C@H](O)CO)nn2)[C@H](O)CO)OC(C(=O)O)=C[C@@H]1NC(=N)N` gave an EC50 of 0.32 nM.
On to `CC(=O)N[C@H]1[C@H]([C@H](OC(=O)NCCCCc2cn(CCCNC(=O)O[C@@H]([C@@H]3OC(C(=O)O)=C[C@H](NC(=N)N)[C@H]3NC(C)=O)[C@H](O)CO)nn2)[C@H](O)CO)OC(C(=O)O)=C[C@@H]1NC(=N)N`, for which the midpoint of the response, the EC50, lay at 0.43 nM.
In the case of `CC(=O)N[C@H]1[C@H]([C@H](OC(=O)NCCCCCCCCc2cn(CCCCCCCNC(=O)O[C@@H]([C@@H]3OC(C(=O)O)=C[C@H](NC(=N)N)[C@H]3NC(C)=O)[C@H](O)CO)nn2)[C@H](O)CO)OC(C(=O)O)=C[C@@H]1NC(=N)N`, the EC50 came to 0.39 nM.
Turning to `CC(=O)N[C@H]1[C@H]([C@H](OC(=O)NCCCn2cc(CCNC(=O)O[C@@H]([C@@H]3OC(C(=O)O)=C[C@H](NC(=N)N)[C@H]3NC(C)=O)[C@H](O)CO)nn2)[C@H](O)CO)OC(C(=O)O)=C[C@@H]1NC(=N)N`, the EC50 was 0.51 nM.
